Experimental data reported in ChEMBL document CHEMBL1201862, “PubChem BioAssay data set” (2004).
Active and inactive are the calls of the source.

Columns and labels:
[1] = HEp-2 cell cytotoxicity, dose response, cytotoxicity control for RSV inhibitor project, HTS (AID 2410); type: functional; conditions: human respiratory syncytial virus
[2] = A Cell Based Secondary Assay To Explore Cytotoxicity of Compounds that Sensitize Mycobacterium Tuberculosis to Beta-Lactam Antibiotics.; type: functional
[3] = biological target: Lysine-specific demethylase 4C (Homo sapiens, UniProt Q9H3R0); assay: GASC-1 (JMJD2C) histone demethylase inhibitors, dose response, biochemical, DELFIA europium, cherry-picked samples (AID 488835); type: functional
[4] = biological target: Alkaline phosphatase, placental type (Homo sapiens, UniProt P05187); assay: PLAP enzyme inhibitors, confirmation, biochemical, luminescence (AID 1512); type: functional
[5] = biological target: Glyceraldehyde-3-phosphate dehydrogenase (Homo sapiens, UniProt P04406)
[6] = biological target: T1, Alkaline phosphatase, tissue-nonspecific isozyme (Homo sapiens, UniProt P05186); assay: human TNAP enzyme inhibitors, SAR follow-up, biochemical, luminescent, dose response (AID 1056)
T1 sequence (P05186 whole entry): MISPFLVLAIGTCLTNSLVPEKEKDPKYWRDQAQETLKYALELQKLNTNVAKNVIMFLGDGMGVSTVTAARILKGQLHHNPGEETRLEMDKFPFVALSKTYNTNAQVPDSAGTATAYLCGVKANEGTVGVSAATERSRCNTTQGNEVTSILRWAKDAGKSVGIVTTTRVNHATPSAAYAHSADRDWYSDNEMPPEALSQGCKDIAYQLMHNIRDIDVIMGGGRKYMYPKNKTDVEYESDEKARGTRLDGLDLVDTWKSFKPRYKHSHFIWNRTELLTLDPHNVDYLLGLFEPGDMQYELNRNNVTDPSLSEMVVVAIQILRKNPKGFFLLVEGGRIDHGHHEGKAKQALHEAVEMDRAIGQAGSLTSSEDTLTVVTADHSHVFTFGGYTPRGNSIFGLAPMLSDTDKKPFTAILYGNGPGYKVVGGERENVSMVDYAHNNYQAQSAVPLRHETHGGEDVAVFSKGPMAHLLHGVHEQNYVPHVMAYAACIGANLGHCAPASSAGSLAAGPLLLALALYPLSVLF

Coagulation factor XII = Coagulation factor XII (Homo sapiens, UniProt P00748); type: functional;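 also: activated factor XIIa alpha cleaving a fluorogenic AMC peptide substrate; inhibitor potency from loss of enzyme activity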
Bcl-2-related protein A1 = biological target: T2, Bcl-2-related protein A1 (Mus musculus, UniProt Q07440); type: functional;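 also: confirmatory dose–response counterscreen on Bfl-1, used to check hits from a UBC13 polyubiquitin inhibitor campaign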
T2 sequence (Q07440 whole entry): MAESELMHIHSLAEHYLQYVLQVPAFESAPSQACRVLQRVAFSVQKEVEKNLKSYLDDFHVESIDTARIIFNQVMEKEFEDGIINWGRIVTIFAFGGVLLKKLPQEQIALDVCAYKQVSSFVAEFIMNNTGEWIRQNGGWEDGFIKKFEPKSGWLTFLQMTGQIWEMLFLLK

[7] = biological target: T3, Ubiquitin-conjugating enzyme E2 N (Homo sapiens, UniProt P61088); type: functional
T3 sequence (P61088 whole entry): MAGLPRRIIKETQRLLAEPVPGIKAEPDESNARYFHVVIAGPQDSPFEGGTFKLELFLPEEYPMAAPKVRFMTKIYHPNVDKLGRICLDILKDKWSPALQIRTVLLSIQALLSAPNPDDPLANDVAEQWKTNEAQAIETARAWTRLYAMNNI

[8] = biological target: Peroxisome proliferator-activated receptor gamma/Nuclear receptor coactivator 3 (Homo sapiens, UniProt P37231); assay: TR-FRET dose response biochemical High Throughput Screening assay for agonists of the steroid receptor coactivator 3 (SRC-3) recruitment by the peroxisome proliferator-activated receptor gamma (PPAR gamma): non-selective agonists. [Related pubchem assays: 1301 (Confirmation screen.), 1048 (Primary screen.)]; type: functional
[9] = biological target: T3, Ubiquitin-conjugating enzyme E2 N; type: functional; remark: listed apart in the source
[10] = biological target: Peroxisome proliferator-activated receptor gamma/Nuclear receptor coactivator 2 (Homo sapiens, UniProt P37231); assay: (§1) TR-FRET dose response biochemical High Throughput Screening assay for agonists of the steroid receptor coactivator 2 (SRC-2) recruitment by the peroxisome proliferator-activated receptor gamma (PPAR gamma): non-selective agonists. [Related pubchem assays: 1297, 1032 ]; type: functional
[11] = biological target: Peroxisome proliferator-activated receptor gamma/Nuclear receptor coactivator 1 (Homo sapiens, UniProt P37231); assay: as §1, with “1 (SRC-1)” for “2 (SRC-2)”, “assays (depositor defined):AID1300, AID1808, AID504735, AID631]” for “assays: 1297, 1032 ]”; type: protein assay
[12] = biological target: T4, Type-1 angiotensin II receptor (Homo sapiens, UniProt P30556); assay: AT1 receptor agonists, dose response, selectivity assay for APJ receptor agonist project, cell-based, uHTS hits (AID 488865); type: functional;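 also: beta-arrestin recruitment to AT1 measured by enzyme fragment complementation luminescence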
T4 sequence (P30556 whole entry): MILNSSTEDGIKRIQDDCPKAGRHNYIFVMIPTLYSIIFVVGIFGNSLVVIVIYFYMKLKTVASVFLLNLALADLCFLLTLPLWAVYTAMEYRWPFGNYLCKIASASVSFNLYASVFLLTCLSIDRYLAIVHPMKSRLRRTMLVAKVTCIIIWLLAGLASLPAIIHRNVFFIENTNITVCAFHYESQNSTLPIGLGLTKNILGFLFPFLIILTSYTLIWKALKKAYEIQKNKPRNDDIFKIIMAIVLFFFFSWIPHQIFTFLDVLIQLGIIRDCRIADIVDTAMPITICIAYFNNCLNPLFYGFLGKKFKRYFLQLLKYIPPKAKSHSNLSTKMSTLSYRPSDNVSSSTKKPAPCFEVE

[13] = insulin promoter down-regulators in MIN6 cells, imaging, high-content screening, mouse beta cells (AID 1628); type: functional
[14] = cytotoxicity in MIN6 insulinoma cells, dose response, cytotoxicity control, cell-based, mouse insulinoma (AID 2122); type: functional;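 also: confirmatory high-throughput counterscreen run to flag cytotoxic compounds; mouse MIN-6 beta cells carrying an insulin promoter eGFP reporter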
Paired box protein Pax-8 = Paired box protein Pax-8 (Homo sapiens, UniProt Q06710); assay: inhibitors of PAX8-driven TPO luciferase reporter, dose response, RMG-I cells, cherry-pick (AID 687027); type: functional, cell-based;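 also: luciferase reporter driven by Pax8 target thyroperoxidase promoter measured by SteadyGlo luminescence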
[15] = inhibitors of intracellular T. cruzi replication, confirmation, NIH3T3 host cells, beta-gal luminescence (AID 2044); type: functional, cell-based;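 also: intracellular parasites grown in NIH/3T3 mouse fibroblasts as host cells; luminescent beta-galactosidase reporter signal from transgenic T. cruzi replicating inside host cells; inhibitors lower the luminescence signal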
[16] = cytotoxicity toward NIH3T3 fibroblasts, dose response, counter-screen, cell-based, ATP luminescence, mouse fibroblasts (AID 2010); type: functional;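 also: cells exposed to compound for about 90 hours before reading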
Vero = assay: host cell cytotoxicity of antiviral hits, dose response, cytotoxicity control for West Nile virus antiviral project, secondary assay (AID 1650); type: functional; conditions: Chlorocebus sabaeus
HEK293 [17] = assay: NOD1 signaling inhibitors, primary screen, cell-based, luminescence, uHTS (AID 1578); type: functional; conditions: Homo sapiens
HEK293 [18] = assay: NOD2 signaling inhibitors in MDP-stimulated cells, cell-based, uHTS, luminescence (AID 2001); type: functional; conditions: Homo sapiens
HEK293 [19] = assay: cells; type: functional, cell-based; conditions: Homo sapiens
HEK293 [20] = assay: cells; type: functional, cell-based; conditions: Homo sapiens; remark: listed apart in the source
HEK293 [21] = assay: cells; type: functional, cell-based; conditions: Homo sapiens; remark: listed apart in the source
[22] = biological target: Nucleotide-binding oligomerization domain-containing protein 2 (Homo sapiens, UniProt Q9HC29); assay: NOD2 signaling inhibitors, cell-based, luminescence, uHTS, HEK293 (AID 1566); type: functional
SUMO-activating enzyme = SUMO-activating enzyme (Homo sapiens, UniProt Q9UBT2); assay: SUMOylation inhibitor hit validation, confirmation, SUMOylation inhibitor project, biochemical, AlphaScreen (AID 2018); type: functional
[23] = biological target: T5, Dual specificity protein phosphatase 6 (Rattus norvegicus, UniProt Q64346); assay: MKP-3 phosphatase inhibitors, primary screen, biochemical, rat enzyme, in vitro (AID 425)
T5 sequence (Q64346 whole entry): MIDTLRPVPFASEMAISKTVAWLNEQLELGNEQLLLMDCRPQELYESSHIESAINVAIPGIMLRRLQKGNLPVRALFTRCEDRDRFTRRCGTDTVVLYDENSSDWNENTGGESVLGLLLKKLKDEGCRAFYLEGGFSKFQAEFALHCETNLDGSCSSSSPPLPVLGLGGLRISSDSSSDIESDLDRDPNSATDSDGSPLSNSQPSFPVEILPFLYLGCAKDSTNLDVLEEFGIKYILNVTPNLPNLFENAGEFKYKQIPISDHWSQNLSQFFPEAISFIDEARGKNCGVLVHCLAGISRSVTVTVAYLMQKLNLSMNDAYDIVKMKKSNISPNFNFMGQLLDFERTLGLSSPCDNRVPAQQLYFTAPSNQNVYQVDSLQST

[24] = biological target: T6, Dual specificity protein phosphatase 3 (Homo sapiens, UniProt P51452); assay: VHR1 phosphatase inhibitors, primary screen, biochemical, absorbance, uHTS (AID 1654)
[25] = biological target: DNA dC->dU-editing enzyme APOBEC-3G (Homo sapiens, UniProt Q9HC16); assay: Dose Response confirmation of small molecule APOBEC3G DNA Deaminase Inhibitors via a fluorescence-based single-stranded DNA deaminase assay. [Related pubchem assays (depositor defined):AID493012, AID493028]; type: functional
[26] = biological target: T6, Dual specificity protein phosphatase 3; assay: VHR1 phosphatase inhibitors, biochemical (AID 1878)

Chain of Alkaline phosphatase, placental type (P05187 whole entry): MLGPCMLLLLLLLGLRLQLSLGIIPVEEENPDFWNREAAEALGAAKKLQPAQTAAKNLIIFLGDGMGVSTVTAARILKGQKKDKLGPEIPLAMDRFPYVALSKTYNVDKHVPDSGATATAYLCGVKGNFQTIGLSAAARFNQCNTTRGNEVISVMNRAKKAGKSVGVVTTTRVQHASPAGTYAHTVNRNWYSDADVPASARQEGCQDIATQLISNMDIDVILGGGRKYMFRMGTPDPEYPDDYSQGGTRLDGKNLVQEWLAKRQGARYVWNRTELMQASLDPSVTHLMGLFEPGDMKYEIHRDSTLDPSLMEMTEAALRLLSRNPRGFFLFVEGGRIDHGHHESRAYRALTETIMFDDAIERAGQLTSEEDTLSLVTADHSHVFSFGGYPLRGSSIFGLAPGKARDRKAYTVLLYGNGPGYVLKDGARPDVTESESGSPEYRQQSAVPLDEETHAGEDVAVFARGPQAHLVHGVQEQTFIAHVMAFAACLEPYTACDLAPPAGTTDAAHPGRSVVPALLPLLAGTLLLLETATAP
T6 sequence (P51452 whole entry): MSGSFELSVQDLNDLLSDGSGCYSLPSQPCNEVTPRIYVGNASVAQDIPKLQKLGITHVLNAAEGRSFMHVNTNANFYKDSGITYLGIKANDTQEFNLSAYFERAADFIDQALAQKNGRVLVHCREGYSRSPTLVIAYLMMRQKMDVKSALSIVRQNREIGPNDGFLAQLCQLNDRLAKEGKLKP
Chain of Glyceraldehyde-3-phosphate dehydrogenase (P04406 whole entry): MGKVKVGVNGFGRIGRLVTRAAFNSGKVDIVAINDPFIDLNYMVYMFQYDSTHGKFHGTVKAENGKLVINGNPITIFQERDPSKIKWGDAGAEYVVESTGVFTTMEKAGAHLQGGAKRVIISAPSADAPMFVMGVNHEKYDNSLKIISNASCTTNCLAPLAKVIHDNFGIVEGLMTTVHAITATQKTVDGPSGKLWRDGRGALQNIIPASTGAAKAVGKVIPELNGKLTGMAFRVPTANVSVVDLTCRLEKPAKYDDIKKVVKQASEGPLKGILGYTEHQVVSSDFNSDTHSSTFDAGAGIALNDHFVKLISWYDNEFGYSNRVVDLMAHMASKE
Chain of Coagulation factor XII (P00748 20-372 limits assumed): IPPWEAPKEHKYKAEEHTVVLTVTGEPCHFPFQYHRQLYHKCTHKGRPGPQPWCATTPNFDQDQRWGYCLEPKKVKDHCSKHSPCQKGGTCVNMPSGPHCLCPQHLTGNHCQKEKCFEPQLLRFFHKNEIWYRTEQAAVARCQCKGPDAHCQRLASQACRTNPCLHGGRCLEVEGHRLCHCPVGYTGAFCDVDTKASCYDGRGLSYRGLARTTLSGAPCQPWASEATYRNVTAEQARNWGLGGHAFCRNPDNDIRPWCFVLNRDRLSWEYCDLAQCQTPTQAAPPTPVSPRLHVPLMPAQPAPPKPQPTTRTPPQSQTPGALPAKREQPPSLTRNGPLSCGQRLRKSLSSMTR
Chain of Coagulation factor XII (P00748 373-615 limits assumed): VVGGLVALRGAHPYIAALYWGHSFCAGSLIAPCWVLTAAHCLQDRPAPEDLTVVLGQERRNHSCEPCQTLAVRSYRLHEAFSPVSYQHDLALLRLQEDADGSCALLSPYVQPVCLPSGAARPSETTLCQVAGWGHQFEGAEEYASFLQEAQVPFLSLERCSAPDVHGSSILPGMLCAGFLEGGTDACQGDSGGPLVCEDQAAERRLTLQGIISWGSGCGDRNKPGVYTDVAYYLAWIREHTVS
Chain of Lysine-specific demethylase 4C (Q9H3R0 whole entry): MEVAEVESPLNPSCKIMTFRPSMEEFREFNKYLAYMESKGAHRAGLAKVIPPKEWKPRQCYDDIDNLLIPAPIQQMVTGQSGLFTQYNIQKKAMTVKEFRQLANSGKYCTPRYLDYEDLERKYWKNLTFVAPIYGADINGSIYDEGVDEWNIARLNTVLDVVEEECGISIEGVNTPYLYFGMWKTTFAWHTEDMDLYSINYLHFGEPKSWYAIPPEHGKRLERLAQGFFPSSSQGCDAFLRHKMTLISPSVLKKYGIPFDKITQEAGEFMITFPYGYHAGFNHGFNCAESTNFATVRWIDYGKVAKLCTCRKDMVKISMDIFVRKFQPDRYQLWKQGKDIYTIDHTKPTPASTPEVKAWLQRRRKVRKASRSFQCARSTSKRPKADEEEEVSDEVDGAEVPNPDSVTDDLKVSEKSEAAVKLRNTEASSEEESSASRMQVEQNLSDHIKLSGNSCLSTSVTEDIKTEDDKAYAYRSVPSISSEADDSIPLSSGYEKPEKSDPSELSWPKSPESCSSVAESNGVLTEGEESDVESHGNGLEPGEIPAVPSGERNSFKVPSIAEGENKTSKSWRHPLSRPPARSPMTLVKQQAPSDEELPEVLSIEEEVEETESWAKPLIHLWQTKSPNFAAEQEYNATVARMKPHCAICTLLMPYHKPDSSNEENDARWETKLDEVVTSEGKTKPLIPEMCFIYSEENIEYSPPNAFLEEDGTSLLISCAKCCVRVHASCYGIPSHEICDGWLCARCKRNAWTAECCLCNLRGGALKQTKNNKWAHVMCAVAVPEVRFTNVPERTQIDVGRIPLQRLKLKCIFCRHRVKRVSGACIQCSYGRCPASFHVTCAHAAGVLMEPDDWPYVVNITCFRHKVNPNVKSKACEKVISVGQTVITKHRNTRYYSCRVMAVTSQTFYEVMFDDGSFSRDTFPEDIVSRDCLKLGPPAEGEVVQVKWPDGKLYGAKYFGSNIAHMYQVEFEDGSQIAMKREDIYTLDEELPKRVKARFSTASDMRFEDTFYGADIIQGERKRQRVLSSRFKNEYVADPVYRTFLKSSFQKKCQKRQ
Chain of Peroxisome proliferator-activated receptor gamma/Nuclear receptor coactivator 3 (P37231 whole entry): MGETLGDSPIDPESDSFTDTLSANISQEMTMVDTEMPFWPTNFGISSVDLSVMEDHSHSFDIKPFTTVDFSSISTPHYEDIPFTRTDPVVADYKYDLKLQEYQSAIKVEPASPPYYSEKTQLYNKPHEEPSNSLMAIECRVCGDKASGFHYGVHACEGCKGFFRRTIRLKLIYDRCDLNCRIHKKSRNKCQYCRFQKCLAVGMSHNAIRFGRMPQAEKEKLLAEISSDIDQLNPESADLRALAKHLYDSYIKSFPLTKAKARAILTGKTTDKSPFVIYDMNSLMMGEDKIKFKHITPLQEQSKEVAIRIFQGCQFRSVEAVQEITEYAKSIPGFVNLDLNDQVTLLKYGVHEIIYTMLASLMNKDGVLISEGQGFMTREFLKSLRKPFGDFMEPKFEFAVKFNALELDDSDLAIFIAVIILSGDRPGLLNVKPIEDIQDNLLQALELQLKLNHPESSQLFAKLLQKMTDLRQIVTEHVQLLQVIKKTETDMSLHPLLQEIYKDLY
Chain of Peroxisome proliferator-activated receptor gamma/Nuclear receptor coactivator 3 (Q9Y6Q9 whole entry, further chain): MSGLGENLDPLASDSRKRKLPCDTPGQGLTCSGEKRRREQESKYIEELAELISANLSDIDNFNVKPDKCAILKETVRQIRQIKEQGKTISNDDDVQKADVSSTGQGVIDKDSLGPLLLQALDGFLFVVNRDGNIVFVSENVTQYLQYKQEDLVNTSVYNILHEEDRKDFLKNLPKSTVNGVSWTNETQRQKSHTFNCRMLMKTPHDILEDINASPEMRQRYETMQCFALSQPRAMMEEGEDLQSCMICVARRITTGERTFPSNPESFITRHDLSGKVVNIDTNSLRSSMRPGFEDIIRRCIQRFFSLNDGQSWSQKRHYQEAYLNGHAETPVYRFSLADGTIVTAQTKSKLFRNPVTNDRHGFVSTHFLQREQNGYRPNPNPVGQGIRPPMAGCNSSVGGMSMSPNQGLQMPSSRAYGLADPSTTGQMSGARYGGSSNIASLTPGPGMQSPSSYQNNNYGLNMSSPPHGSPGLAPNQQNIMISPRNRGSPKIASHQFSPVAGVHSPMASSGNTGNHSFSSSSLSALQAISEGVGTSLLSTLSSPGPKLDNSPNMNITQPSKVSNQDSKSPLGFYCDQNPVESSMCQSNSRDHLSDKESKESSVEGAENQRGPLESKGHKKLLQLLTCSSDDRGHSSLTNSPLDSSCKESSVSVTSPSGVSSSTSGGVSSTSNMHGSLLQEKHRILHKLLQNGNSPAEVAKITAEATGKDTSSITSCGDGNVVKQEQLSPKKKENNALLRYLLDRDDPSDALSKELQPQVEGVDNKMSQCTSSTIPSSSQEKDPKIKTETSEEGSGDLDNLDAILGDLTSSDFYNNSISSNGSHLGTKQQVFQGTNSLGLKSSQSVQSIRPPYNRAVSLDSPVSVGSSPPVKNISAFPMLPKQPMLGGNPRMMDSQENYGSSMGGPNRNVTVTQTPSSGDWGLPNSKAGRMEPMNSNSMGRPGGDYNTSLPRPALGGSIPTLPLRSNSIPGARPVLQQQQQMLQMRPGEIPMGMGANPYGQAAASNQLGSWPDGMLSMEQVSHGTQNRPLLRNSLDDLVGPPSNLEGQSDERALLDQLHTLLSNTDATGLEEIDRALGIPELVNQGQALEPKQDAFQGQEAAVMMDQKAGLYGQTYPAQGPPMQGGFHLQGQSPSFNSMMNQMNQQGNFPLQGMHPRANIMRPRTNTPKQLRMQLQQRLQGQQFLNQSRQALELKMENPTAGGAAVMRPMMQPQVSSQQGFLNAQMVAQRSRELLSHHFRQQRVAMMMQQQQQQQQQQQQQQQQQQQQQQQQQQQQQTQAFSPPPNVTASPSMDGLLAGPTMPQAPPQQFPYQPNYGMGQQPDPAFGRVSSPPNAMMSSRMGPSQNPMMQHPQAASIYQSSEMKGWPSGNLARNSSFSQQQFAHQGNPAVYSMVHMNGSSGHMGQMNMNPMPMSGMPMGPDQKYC
Chain of DNA dC->dU-editing enzyme APOBEC-3G (Q9HC16 whole entry): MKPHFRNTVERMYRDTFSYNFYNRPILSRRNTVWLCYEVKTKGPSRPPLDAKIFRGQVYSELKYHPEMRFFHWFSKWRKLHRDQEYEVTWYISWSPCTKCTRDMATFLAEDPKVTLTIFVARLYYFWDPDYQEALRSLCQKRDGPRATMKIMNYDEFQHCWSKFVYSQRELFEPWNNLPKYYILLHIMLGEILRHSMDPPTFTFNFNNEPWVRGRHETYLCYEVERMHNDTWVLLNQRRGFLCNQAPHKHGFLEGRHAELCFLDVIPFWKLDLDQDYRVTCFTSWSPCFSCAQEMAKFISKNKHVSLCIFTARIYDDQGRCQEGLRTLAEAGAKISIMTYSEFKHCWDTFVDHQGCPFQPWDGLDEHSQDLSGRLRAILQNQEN

Structure (SMILES): Cc1cc(C=C2C(=O)NC(=S)NC2=O)c(C)n1-c1ccc2c(c1)OCO2
- CC50 [1]: 14.3 µM (active)
- CC50 [2]: > 40 µM (active)
- AC50 [3]: 9.41 µM (active)

Structure (SMILES): O=C(O)c1cc(-c2ccc(Cl)cc2Cl)[nH]n1
- IC50 [4]: > 100 µM (inactive)
- IC50 [5]: > 100 µM (not active)
- IC50 [6]: 0.392 µM (active)

Structure (SMILES): CCOC(=O)c1sc(N(C)C(C)=O)nc1C
- IC50 (Coagulation factor XII): > 50 µM (inactive)

Structure (SMILES): CCn1c(=O)cc(SCC(=O)N2CCN(C3CCCCC3)CC2)c2ccccc21
- IC50 (Bcl-2-related protein A1): > 20 µM (inactive)
- IC50 [7]: 14.5 µM (active)
- EC50 [8]: > 79.4 µM (not active)
- IC50 [9]: > 20 µM (inactive)
- EC50 [10]: > 79.4 µM (not active)
- EC50 [11]: > 79.4 µM (inactive)

Structure (SMILES): CCC(C)NC(=O)CSC1=Nc2ccccc2C2=NC(CC(=O)NCc3ccccc3)C(=O)N12 (centres undefined)
- EC50 [12]: > 100 µM (inactive)

Structure (SMILES): O=c1cc(C(Cl)(Cl)Cl)oc2c1ccc1ccccc12
- IC50 [13]: 1.78 µM (active)
- IC50 [14]: 1.28 µM (active)
- AC50 (Paired box protein Pax-8): 2.66 µM (active)
- EC50 [15]: 0.893 µM (active)
- EC50 [16]: 3.32 µM (active)
- CC50 (Vero): 5.35 µM (active)

Structure (SMILES): Brc1ccc2ncnc(NCc3ccco3)c2c1
- EC50 (HEK293 [17]): 3.41 µM (active)
- IC50 (HEK293 [18]): 5.54 µM (active)
- IC50 (HEK293 [19]): > 20 µM (inactive)
- IC50 (HEK293 [20]): > 20 µM (inactive)
- IC50 (HEK293 [21]): 4.57 µM (active)
- EC50 [22]: 6.5 µM (active)

Structure (SMILES): COc1ccccc1Cc1nc(N)nn1-c1ccccc1
- IC50 [4]: > 100 µM (inactive)
- IC50 [5]: > 100 µM (not active)
- IC50 [6]: > 100 µM (inactive)

Structure (SMILES): NC(=S)N=Nc1c(O)n(CCCl)c2ccccc12
- IC50 (Bcl-2-related protein A1): > 20 µM (inactive)
- IC50 [7]: 18 µM (active)
- IC50 [9]: 10.8 µM (active)

Structure (SMILES): O=C(Nc1ccc(N2C(=O)C3C4C=CC(C4)C3C2=O)cc1)Nc1cccnc1 (centres undefined)
- IC50 (SUMO-activating enzyme): > 100 µM (inactive)

Structure (SMILES): Cc1ccc(/C=N/NC(=O)CSc2nnc(-c3ccc(Cl)cc3)n2-c2ccccc2)o1
- EC50 [12]: > 100 µM (inactive)

Structure (SMILES): COC(=O)c1sc(NC(=O)c2cc(-c3ccccc3)nc3ccccc23)c(C#N)c1C
- IC50 [23]: > 158 µM (not active)
- IC50 [24]: 1.15 µM (active)
- IC50 [25]: 28.6 µM (active)
- IC50 [26]: 2.08 µM (active)

Structure (SMILES): COc1ccc(NC(NC(=O)c2cccnc2)C(Cl)(Cl)Cl)cc1 (centres undefined)
- IC50 (Coagulation factor XII): > 50 µM (inactive)
